In patent US20050137251A1, “Dexanabinol and dexanabinol analogs regulate inflammation related genes” (priority 2002, published 2005):

How the values were obtained:
PGE2 secretion = assay: Inhibition of PGE2 secretion in LPS activated mouse macrophages (RAW 264.7); format: cell-based; details: RAW264.7, LPS activated RAW 264.7 cells, same experimental setup, known anti-inflammatory drugs
Method: The assay reproduces in vitro the true enzymatic activity, the test compounds, up to 10 μM, were preincubated for 5 minutes with purified COX-2, then the natural substrate AA was added and the reaction was allowed to proceed for 2 minutes. HCl was used to stop the enzyme catalysis and saturated stannous chloride was added to stabilize the PGH2 product into PGF2α.
RAW 264.7 macrophages, a mouse cell line (ATCC # TIB 71), were grown in Dulbecco's modified Eagle's medium (DMEM) with 4 mM L-glutamine adjusted to contain 1.5 g/L sodium bicarbonate, 4.5 g/L glucose, and 10% heat inactivated fetal bovine serum. Cells were grown in tissue culture flasks and seeded at appropriate density into 24 wells tissue culture plates. 0.5×10^6 Raw cells in one milliliter were stimulated with 2 μg/ml Lipopolysaccharide E. coli 055:B5 (DIFCO Laboratories). The mouse macrophages were pre-treated for one hour with controls or 10 μM of dexanabinol and its analogs, unless indicated otherwise, and later on activated with LPS.

[1] = tested on: carrageenan induced paw edema; assay: Carrageenan induced paw edema; format: in vivo, mice; details: 3 hours after carrageenan
SAA-3 gene expression = assay: SAA-3 liver gene expression (acute phase response), ConA model; format: in vivo, mice; details: 1 mg/kg, on average at both time points of four and eight hours
Method: (§1) II reverse transcriptase (Life Technologies).
(§2) Each experimental group contained at least twenty BALB/c inbred female mice (25 g average weight, Harlan, Israel). The negative control group was composed of mice injected with saline instead of ConA. The injection of ConA (Sigma) was done i.v. at the base of the tail at the dose of 15 mg/kg in saline. The treatments were injected i.v. at 5 mg/kg, 30 minutes before ConA injection, unless indicated otherwise. Compounds were dissolved in cremophor:ethanol, further diluted with saline before injection, and vehicle only was included as an internal control. Analysis was performed at predetermined time points following ConA injection.
(§3) The acute phase response is an innate body defense seen during acute inflammation, infection and trauma, which involves the altered production of certain blood proteins termed acute phase proteins (APPs). As previously stated activated macrophages and other leukocytes release pro-inflammatory cytokines such as TNF-α, IL-1 and IL-6. These cytokines in turn stimulate hepatocytes to synthesize and secrete acute phase proteins such as C-reactive protein (CRP), mannose-binding lectin (MBL), haptoglobin and serum amyloid A (SAA). Measurement of acute phase protein level is used to monitor the severity of the innate response and thus predict the prognosis of the disease. […]

[2] = tested on: ConA injured liver (ALT release); assay: ALT release from ConA injured liver; format: in vivo, mice; details: PRS-211,092 5 mg/kg, FK-506 1 mg/kg
Method: as §2
Impact of treatment was monitored at three levels. First, blood samples (200-400 μl) were collected at predetermined time points after ConA injection, using retro-orbital puncture. After short centrifugation (5000 rpm for 2 min) serum was recovered and stored at −80° C. until further use for determination of cytokines concentrations by ELISA and aminotransferase release from the liver as a marker for liver injury.
Alanine aminotransferase (ALT) is an enzyme found mainly in the liver and it is measured to determine whether the liver is damaged or diseased in a variety of human conditions, especially hepatitis and cirrhosis. The level of its release into the bloodstream linearly correlates with the severity of the liver injury and thus it can be used both for diagnosis purposes and to monitor the efficiency of a treatment. The time course of plasma ALT release after ConA injection is known from the literature to peak at eight hours. […] We used this assay to preliminarily assess the temporal window of PRS-211,092 efficiency and the compound was administered either 30 or 60 minutes after induction of injury. […] FK-506 was used as positive control and at the dose of 1 mg/kg, it reduced ALT concentrations by 92%, 93% and 86% when injected at the three previously described time points. Thus, the test compound has an important beneficial impact on liver injury as assessed by the reduction of ALT, a robust marker of the liver injury. […]

[3] = tested on: haptoglobin gene expression; assay: Haptoglobin liver gene expression (acute phase response), ConA model; format: in vivo, mice; details: 1 mg/kg, on average at both time points of four and eight hours
Method: as §1, §2, §3

recombinant COX-2 = recombinant COX-2 (Homo sapiens, UniProt P35354); assay: In vitro enzymatic activity of recombinant COX-2 (PGF2α EIA); format: biochemical
Chain of recombinant COX-2 (P35354 18-604): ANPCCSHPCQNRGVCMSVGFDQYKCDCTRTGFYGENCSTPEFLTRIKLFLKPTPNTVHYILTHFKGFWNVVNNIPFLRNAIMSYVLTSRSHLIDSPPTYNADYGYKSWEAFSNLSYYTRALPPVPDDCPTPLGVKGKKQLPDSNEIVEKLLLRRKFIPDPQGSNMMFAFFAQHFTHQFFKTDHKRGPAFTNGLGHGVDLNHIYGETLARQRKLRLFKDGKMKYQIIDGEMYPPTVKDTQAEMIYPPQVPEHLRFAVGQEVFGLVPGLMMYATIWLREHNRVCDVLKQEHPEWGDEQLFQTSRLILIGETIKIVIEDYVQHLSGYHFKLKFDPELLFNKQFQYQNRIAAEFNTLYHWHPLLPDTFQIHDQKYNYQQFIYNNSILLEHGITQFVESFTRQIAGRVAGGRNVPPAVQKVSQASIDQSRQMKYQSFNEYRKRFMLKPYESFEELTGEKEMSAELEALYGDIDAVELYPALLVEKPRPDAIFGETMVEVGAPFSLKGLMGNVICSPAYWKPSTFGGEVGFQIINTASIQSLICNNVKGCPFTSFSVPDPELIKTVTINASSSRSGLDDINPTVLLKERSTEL

Structure (SMILES) | IC50 (PGE2 secretion) [nM] | Reduction in paw thickness ([1]; 0.1 mg/kg i.p.) [%] | Reduction in paw thickness ([1]; 0.25 mg/kg i.p.) [%] | Reduction in paw thickness ([1]; 0.5 mg/kg i.p.) [%] | also measured
Cc1ccc(-c2cc(C(F)(F)F)nn2-c2ccc(S(N)(=O)=O)cc2)cc1 [Celecoxib] | 5 | 24 | 28 | 33 | 
C[C@@H]1C[C@H]2[C@@H]3CCC4=CC(=O)C=C[C@]4(C)[C@@]3(F)[C@@H](O)C[C@]2(C)[C@@]1(O)C(=O)CO [Dexamethasone] |  | 26 | 31 | 33 | 
C=CC[C@@H]1/C=C(\C)C[C@H](C)C[C@H](OC)[C@H]2O[C@@](O)(C(=O)C(=O)N3CCCC[C@H]3C(=O)O[C@H](/C(C)=C/[C@@H]3CC[C@@H](O)[C@H](OC)C3)[C@H](C)[C@@H](O)CC1=O)[C@H](C)C[C@@H]2OC [FK-506] |  |  |  |  | Reduction in gene expression of SAA-3 (SAA-3 gene expression): 97%; Reduction of ALT concentrations ([2]; administered 30 minutes after induction of injury): 93%; Reduction of ALT concentrations ([2]; administered 30 minutes before ConA, 8 hours after ConA): 92%; Reduction of ALT concentrations ([2]; administered 60 minutes after induction of injury): 86%; Reduction in gene expression of haptoglobin [3]: 78%
CS(=O)(=O)Nc1ccc([N+](=O)[O-])cc1OC1CCCCC1 [NS-398] | 100 |  |  |  | 
CS(=O)(=O)c1ccc(C2=C(c3ccccc3)C(=O)OC2)cc1 [Rofecoxib, reference compound] | 100 |  |  |  | Inhibition of COX-2 enzymatic activity (recombinant COX-2): strongly inhibited
